From paper PMC8880564, “Design, Synthesis, and Biological Evaluation of a Novel VEGFR-2 Inhibitor Based on a 1,2,5-Oxadiazole-2-Oxide Scaffold with MAPK Signaling Pathway Inhibition” (Pharmaceuticals, 2022) come the findings set out here.

Holding throughout (test): NCI-60 one-dose SRB screening
Type in all cases: cell-based

One assay relates to NCI-H460. As to conditions: Homo sapiens, NCI-H460, Non-Small Cell Lung Cancer, 10 µM one dose, 48 h, read-out: growth percentage. As for the experimental part:
(§1) The structures of the synthesized compounds 6a–h, 12a–c, 11, 13a–c, and 14a–c were submitted to the National Cancer Institute’s Developmental Therapeutics Program (NCI-DTP), and all of them were selected for preliminary in vitro anticancer activity screening against NCI-59 human cancer cell lines at a concentration of 10 µM, using the sulforhodamine B (SRB) assay to determine the growth percentage and cell viability.
(§2) The in vitro NCI-60 cell line screening assay was conducted at the National Cancer Institute (NCI), Bethesda, USA against 59 cancer cell lines representing 9 types of cancers, as reported earlier. Briefly, the human cancer cell lines were grown in RPMI 1640 medium containing 5% fetal bovine serum and 2 mM L-glutamine and inoculated into 96-well microtiter plates in 100 μL (5000 to 40,000 cells/well). Then, the plates were incubated at 37 °C, 5% CO2, 95% air, and 100% relative humidity for 24 h. After that, two plates of each cell line were fixed in situ with TCA, to represent cell population at time zero (Tz). The tested compounds were dissolved in DMSO at 400-fold and added so that the final concentration became 10 μM. The plates were then incubated for an additional 48 h followed by the addition of cold TCA to terminate the assay in case of adherent cells. Then, the cells were fixed in situ by cold 50% (w/v) TCA (50 μL; final concentration, 10% TCA) and incubated for 1 h at 4 °C. After discarding the supernatant, the plates were washed 5 times with tap water and air dried. Sulforhodamine B (SRB) solution (100 μL) at 0.4% (w/v) in 1% HOAc was added to each well, and plates were incubated for 10 min. at rt. Then, washing with 1% acetic acid was conducted 5 times to remove the unbound dye followed by air drying. After that, 10 mM trizma base was added to solubilize the bound stain, and the absorbance was read on an automated plate reader at a wavelength of 515 nm. On the other hand, the methodology for suspension cells was the same except that 50 μL of 80% TCA (final concentration, 16% TCA) was gently added to terminate the assay by fixing settled cells at the bottom of the wells. Percentage growth inhibition (GI%) was calculated as follows:
(§3) Growth percentage=Ti (test growth in the presence of compound at 10 µM )−Tz (time zero)/C (control growth)−Tz (time zero)×100 for Ti ≥ Tz;
(§4) Growth percentage=Ti (test growth in the presence of compound at 10 µM )−Tz (time zero)/Tz (time zero)×100 for Ti < Tz.
(§5) where values of 100, 40, 0, −40, and −100 mean no GI, 60% GI, no net G, 40% lethality, and all cells are dead, respectively.

The next assay relates to IGROV1. As to conditions: Homo sapiens, IGROV-1, IGROV1, Ovarian Cancer, 10 µM one dose, 48 h, read-out: growth percentage. The protocol: as §1, §2, §3, §4, §5
The subject of a further assay is UACC-257. As to conditions: Homo sapiens, UACC-257, Melanoma, 10 µM one dose, 48 h, read-out: growth percentage. As for the experimental part:
as §1, §2, §3, §4, §5

Another assay has as its system CAKI-1. As to conditions: Homo sapiens, CAKI-1, Renal Cancer, 10 µM one dose, 48 h, read-out: growth percentage. The protocol:
as §1, §2, §3, §4, §5

The next assay deals with A498. To be noted: Homo sapiens, A498, Renal Cancer, 10 µM one dose, 48 h, read-out: growth percentage. As for the experimental part: as §1, §2, §3, §4, §5
The subject of another assay is RXF 393. To be noted: Homo sapiens, RXF 393, Renal Cancer, 10 µM one dose, 48 h, read-out: growth percentage. The protocol: as §1, §2, §3, §4, §5
For a further assay, the system named is TK-10. As to conditions: Homo sapiens, TK-10, Renal Cancer, 10 µM one dose, 48 h, read-out: growth percentage. The protocol:
as §1, §2, §3, §4, §5

The test system of another assay is NCI-H522. To be noted: Homo sapiens, NCI-H522, Non-Small Cell Lung Cancer, 10 µM one dose, 48 h, read-out: growth percentage. The protocol:
as §1, §2, §3, §4, §5

The test system of a further assay is LOX IMVI. As to conditions: Homo sapiens, Melanoma, 10 µM one dose, 48 h, read-out: growth percentage. The protocol:
as §1, §2, §3, §4, §5

The next assay deals with HOP-92. As to conditions: Homo sapiens, HOP-92, Non-Small Cell Lung Cancer, 10 µM one dose, 48 h, read-out: growth percentage. As for the experimental part:
as §1, §2, §3, §4, §5

The subject of the next assay is MDA-MB-468. To be noted: Homo sapiens, MDA-MB-468, Breast Cancer, 10 µM one dose, 48 h, read-out: growth percentage. The protocol:
as §1, §2, §3, §4, §5

In the next assay the test system is COLO 205. As to conditions: Homo sapiens, COLO 205, Colon Cancer, 10 µM one dose, 48 h, read-out: growth percentage. As for the experimental part:
as §1, §2, §3, §4, §5

The test system of another assay is K-562. To be noted: Homo sapiens, K562, K-562, Leukemia, 10 µM one dose, 48 h, read-out: growth percentage. The protocol:
as §1, §2, §3, §4, §5

For a further assay, the system named is NCI-H23. As to conditions: Homo sapiens, NCI-H23, Non-Small Cell Lung Cancer, 10 µM one dose, 48 h, read-out: growth percentage. The protocol:
as §1, §2, §3, §4, §5

For the next assay, the system named is EKVX. To be noted: Homo sapiens, Non-Small Cell Lung Cancer, 10 µM one dose, 48 h, read-out: growth percentage. The protocol:
as §1, §2, §3, §4, §5

The subject of the next assay is UACC-62. To be noted: Homo sapiens, UACC-62, Melanoma, 10 µM one dose, 48 h, read-out: growth percentage. The protocol: as §1, §2, §3, §4, §5
A further assay has as its system MCF7. To be noted: Homo sapiens, MCF7, Breast Cancer, 10 µM one dose, 48 h, read-out: growth percentage. The protocol: as §1, §2, §3, §4, §5
Another assay deals with OVCAR-3. To be noted: Homo sapiens, OVCAR-3, Ovarian Cancer, 10 µM one dose, 48 h, read-out: growth percentage. The protocol:
as §1, §2, §3, §4, §5

In another assay the test system is SK-MEL-5. To be noted: Homo sapiens, SK-MEL-5, Melanoma, 10 µM one dose, 48 h, read-out: growth percentage. As for the experimental part: as §1, §2, §3, §4, §5
For a further assay, the system named is T-47D. As to conditions: Homo sapiens, T47D, Breast Cancer, 10 µM one dose, 48 h, read-out: growth percentage. As for the experimental part: as §1, §2, §3, §4, §5
A further assay concerns ACHN. As to conditions: Homo sapiens, Renal Cancer, 10 µM one dose, 48 h, read-out: growth percentage. The protocol:
as §1, §2, §3, §4, §5

Another assay relates to NCI/ADR-RES. As to conditions: Homo sapiens, Ovarian Cancer, 10 µM one dose, 48 h, read-out: growth percentage. The protocol: as §1, §2, §3, §4, §5

Take `[O-][n+]1onc(-c2ccccc2)c1COc1ccc(Nc2ncnc3c2cnn3-c2ccccc2)cc1` [6a, 4-phenyl-3-((4-((1-phenyl-1H-pyrazolo[3,4-d]pyrimidin-4-yl)amino)phenoxy)methyl)-1,2,5-oxadiazole 2-oxide]: the activity at 10 µM in the assay on NCI-H460 is 73.6%; in the assay on IGROV1, 95%; in the assay with UACC-257, 98.9%; in the assay on CAKI-1 it was 99.4%; in the assay on A498, 103%; in the assay on RXF 393 it was 98.4%. The activity at 10 µM in the assay with TK-10 amounted to 103%; in the assay with NCI-H522, 99.2%; in the assay with LOX IMVI, 94.3%; in the assay with HOP-92 it was 115%; in the assay on MDA-MB-468, 107%; in the assay on COLO 205, 104%. Further, the activity at 10 µM was found to be 88% with K-562; 105% with NCI-H23; 98.9% in the assay on EKVX; 103% in the assay with UACC-62; 96.1% in the assay on MCF7; 95.9% in the assay with OVCAR-3. In addition, the activity at 10 µM came out at 102% with SK-MEL-5, 96% in the assay on T-47D, 105% in the assay with ACHN and 102% with NCI/ADR-RES.
`Cc1nc(Nc2ccc(OCc3c(-c4ccccc4)no[n+]3[O-])cc2)c2cnn(-c3ccccc3)c2n1` [6b, 3-((4-((6-methyl-1-phenyl-1H-pyrazolo[3,4-d]pyrimidin-4-yl)amino)phenoxy)methyl)-4-phenyl-1,2,5-oxadiazole 2-oxide]: the activity at 10 µM in the assay on NCI-H460 was 111%; with IGROV1 it was 101%; in the assay with UACC-257, 101%; in the assay on CAKI-1, 87.6%; with A498, 102%; in the assay with RXF 393, 111%. In addition, the activity at 10 µM with TK-10 is 94.8%; in the assay with NCI-H522, 96.3%; in the assay on LOX IMVI it was 97.6%; in the assay on HOP-92, 91.4%; in the assay on MDA-MB-468, 94.3%; in the assay on COLO 205 it was 114%. The activity at 10 µM in the assay on K-562 was found to be 111%; in the assay with NCI-H23, 102%; with EKVX, 93.1%; in the assay on UACC-62, 88.4%; in the assay on MCF7, 92.4%; in the assay with OVCAR-3 it was 109%. The activity at 10 µM in the assay on SK-MEL-5 is 103%; with T-47D it was 106%; with ACHN, 105%; in the assay with NCI/ADR-RES it was 103%.
In the case of `Cc1nn(-c2ccccc2)c2ncnc(Nc3ccc(OCc4c(-c5ccccc5)no[n+]4[O-])cc3)c12` [6c, 3-((4-((3-methyl-1-phenyl-1H-pyrazolo[3,4-d]pyrimidin-4-yl)amino)phenoxy)methyl)-4-phenyl-1,2,5-oxadiazole 2-oxide], the activity at 10 µM with NCI-H460 was 109%; in the assay with IGROV1, 97.1%; in the assay on UACC-257, 105%; with CAKI-1 it was 86%; in the assay with A498, 86.3%; in the assay with RXF 393, 112%. The activity at 10 µM in the assay with TK-10 worked out at 110%; with NCI-H522 it was 84.8%; in the assay on LOX IMVI, 101%; in the assay on HOP-92, 91.2%; with MDA-MB-468, 97.1%; in the assay with COLO 205, 116%. Further, the activity at 10 µM in the assay on K-562 came to 90.2%; with NCI-H23 it was 98.1%; in the assay with EKVX, 90.4%; in the assay on UACC-62, 81.4%; in the assay with MCF7, 83%; in the assay on OVCAR-3, 105%. For the same molecule, the activity at 10 µM with SK-MEL-5 amounted to 90.4%; in the assay with T-47D it was 72%; with ACHN it was 97.3%; in the assay with NCI/ADR-RES, 91.7%.
On to `Cc1nc(Nc2ccc(OCc3c(-c4ccccc4)no[n+]3[O-])cc2)c2c(C)nn(-c3ccccc3)c2n1` [6d, 3-((4-((3,6-dimethyl-1-phenyl-1H-pyrazolo[3,4-d]pyrimidin-4-yl)amino)phenoxy)methyl)-4-phenyl-1,2,5-oxadiazole 2-oxide], for which the activity at 10 µM is 112% in the assay with NCI-H460; 106% in the assay on IGROV1; 109% in the assay with UACC-257; 101% in the assay with CAKI-1; 112% in the assay with A498; 119% in the assay on RXF 393. The activity at 10 µM with TK-10 was determined as 126%; in the assay on NCI-H522, 105%; with LOX IMVI, 96.6%; in the assay on HOP-92, 104%; in the assay with MDA-MB-468 it was 107%; with COLO 205, 107%. For the same molecule, the activity at 10 µM with K-562 turned out to be 99.3%; in the assay on NCI-H23, 102%; in the assay on EKVX, 102%; in the assay with UACC-62, 89.6%; in the assay with MCF7, 95.4%; in the assay on OVCAR-3 it was 114%. Further, the activity at 10 µM was 98% in the assay with SK-MEL-5, 104% with T-47D, 95.5% in the assay with ACHN and 102% in the assay on NCI/ADR-RES.
